Source: patent publication US20240299431A1, “NEW SYNTHETIC AGONISTS OF TLR4 RECEPTOR” (UNIVERSITÀ DEGLI STUDI DI MILANO - BICOCCA, priority 2021, published 2024)
Entries after “also recorded” stand apart in the source; their conditions may differ. Like-named read-outs stand apart in the source and are kept apart here. Each block holds one compound with its values, some of them ahead of it.

Experiments:
TLR4 = settings: both murine and human cells; cited from earlier work
human TLR2 = target: T1, human TLR2 (Homo sapiens, UniProt O60603); experiment: HEK-Blue hTLR2 SEAP reporter assay; assay type: cell-based; settings: HEK-Blue hTLR2 cells, compounds 0.1-25 μM; PAM2CSK4 positive control (1 ng/mL)
T1 construct: host or cells: HEK-Blue hTLR2 (HEK reporter cell line)
Description: (§1) HEK-BIue™ hTLR4 and HEK-BIue™ hTLR2 (InvivoGen) are cell lines designed to study the activation of human TLR4 and TLR2 receptors, respectively, by monitoring the activation of transcription factors NF-kB and AP-1. Stimulation with TLR4 ligands (in the case of HEK-Blue hTLR4) or with TLR2 ligands (in the case of HEK-Blue hTLR2) activates NF-kB and AP-1, inducing the production and release of the SEAP reporter gene (phosphatase secreted embryonic alkaline) in the extracellular environment. The analysis of the reporter gene was performed using the QUANTI-Blue™ colorimetric assay (InvivoGen), a substrate of SEAP, which generates a chromogenic product whose absorbance is read at 630 nm. […] The molecules were subsequently tested on the HEK-Blue hTLR2 cell line with the aim of excluding the activation of this receptor. In this regard, HEK-Blue hTLR2 cells were treated with the same compounds and at the same concentrations as the tests conducted previously and the compound PAM2CSK4 was used as a positive control for TLR2 activation.

[1] = tested on: interleukin-6 (IL-6), interleukin-8 (IL-8) and TNF-α; settings: murine macrophages and neutrophil granulocytes; cited from earlier work
[2] = tumour-affected patients; cited from earlier work
Escherichia coli = settings: one dose one day prior to microbial inoculation; cited from earlier work
RAW-Blue = experiment: MTT viability assay on RAW-Blue cells; assay type: cell-based; settings: mouse macrophage line RAW-Blue
Method: (§2) The toxicity of the compounds was evaluated by MTT viability assay (3-(4,5-dimethylthiazol-2-yl)-2,5-diphenyltetrazolium bromide).

THP-1-X-Blue cells = experiment: MTT viability assay on differentiated THP-1-X-Blue cells; assay type: cell-based, human; settings: THP-1-X-Blue macrophages; for cell viability at the highest concentration tested: 50 μM; for toxicity (MTT viability): 0.1-50 μM
Method: as §2
A preliminary test to investigate the toxicity of this functionalized compound was performed, even though without a triplicate.

NF-kB [3] = experiment: RAW-Blue murine macrophages, NF-kB/AP-1 SEAP reporter; assay type: cell-based; settings: RAW-blue line
Method: (§3) THP-1-X BIue™ cell lines, monocytes differentiated into macrophages following treatment with PMA 100 ng/mL, and RAW-BIue™ were used. Similarly to HEK-Blue cells, THP-1 X-Blue and […] stably express the SEAP reporter gene, under the control of transcription factors NF-kB and AP-1. The cells were treated as previously described.

NF-kB [4] = experiment: THP-1-X Blue macrophages, NF-kB/AP-1 SEAP reporter; assay type: cell-based, human
Method: as §3
FP200 activity was then assessed on human monocytes cell line THP-1-X-Blues, described before. Cells were treated with compounds FP11, FP112, FP20, FP200 and FP21 in increasing concentrations (0.1, 1, 10, 20 μM) and using MPLA (0.1-1-10 μM) and S-LPS (100 ng/mL) as a reference and positive receptor activation control, respectively.
Compound FP207, functionalized with MPA, was tested in vitro on human THP-1-XBlue cells to evaluate the NF-kB activation.

[5] = Pilot in vivo toxicity of adjuvants in mice; set-up: species or system C57Bl/6 mice; settings: 10 μg subcutaneously, over 7 days
Method: (§4) The ability of FP11 and FP112 to induce immune responses in vivo was compared to MPLA by evaluating antibody production in C57Bl/6 mice immunized with chicken ovalbumin (OVA) as a model antigen. Has been first evaluated the toxicity of FPs in a pilot experiment in which mice were injected subcutaneously with 10 μg of the FP11 and FP112. […] Next, mice were immunized with the tested adjuvants mixed with ovalbumin (OVA). The induction of antibody was evaluated 21 days post immunization.

human TLR4 [6] = target: T2, human TLR4 (Homo sapiens, UniProt O00206+Q9Y6Y9); experiment: Inhibition of LPS-induced SEAP production in HEK-Blue hTLR4 cells (antagonism); assay type: cell-based
T2 construct: host or cells: HEK-Blue hTLR4 (HEK293-derived)

[7] = tested on: C57Bl/6 mice immunized with chicken ovalbumin (OVA); experiment: OVA immunization, adjuvant activity (anti-OVA total IgG); assay type: in vivo; settings: for anti-OVA total IgG after prime immunization compared to MPLA-OVA immunized animals / anti-OVA total IgG after prime immunization compared to OVA-immunized control: 21 days post immunization
Method: as §4

HEK-Blue Null cells = HEK-Blue Null cells SEAP reporter (lack the LPS receptors); assay type: cell-based, human
human TLR4 [8] = target: T2, human TLR4; experiment: HEK-Blue hTLR4 SEAP reporter assay (agonist activity, QUANTI-Blue); assay type: cell-based; settings: HEK-Blue hTLR4 cells, 0.1-25 μM, 18 hours, normalized to LPS
Description: as §1, with “nm. The agonist activity of the molecules was tested by treating HEK-Blue hTLR4 cells for 18 hours with increasing concentrations of the compounds (0.1-1-10-25 μM) and using MPLA (0.1-1-10 μM) and S-LPS (100 ng/mL) as a reference and positive receptor activation control, respectively.” for “nm.”, “In this regard, HEK-Blue hTLR2 cells were treated with the same compounds and at the same concentrations as the tests conducted previously and the compound PAM2CSK4 was used as a positive control for TLR2 activation.” left out
The ability of FP molecules to activate human TLR4 was assessed using HEK-Blue hTLR4 cells. […]

human TLR4 [9] = target: T2, human TLR4; settings: HEK-Blue hTLR4 cells, Experiment 2 of WO2019/092572; cited from earlier work
[10] = tested on: Hek-Blue, Raw-Blue, THP-1 cells; experiment: In vitro tests on Hek-Blue, Raw-Blue and THP-1 cells (summary statements); assay type: cell-based
[11] = tested on: IL-1α, IL-1β, IL-6, TNF-α and IFNβ; settings: cited from earlier work
[12] = tested on: Hek-Blue, Raw-Blue, THP-1 cells; settings: prior art section, cited from earlier work

T2 sequence (O00206 24-839): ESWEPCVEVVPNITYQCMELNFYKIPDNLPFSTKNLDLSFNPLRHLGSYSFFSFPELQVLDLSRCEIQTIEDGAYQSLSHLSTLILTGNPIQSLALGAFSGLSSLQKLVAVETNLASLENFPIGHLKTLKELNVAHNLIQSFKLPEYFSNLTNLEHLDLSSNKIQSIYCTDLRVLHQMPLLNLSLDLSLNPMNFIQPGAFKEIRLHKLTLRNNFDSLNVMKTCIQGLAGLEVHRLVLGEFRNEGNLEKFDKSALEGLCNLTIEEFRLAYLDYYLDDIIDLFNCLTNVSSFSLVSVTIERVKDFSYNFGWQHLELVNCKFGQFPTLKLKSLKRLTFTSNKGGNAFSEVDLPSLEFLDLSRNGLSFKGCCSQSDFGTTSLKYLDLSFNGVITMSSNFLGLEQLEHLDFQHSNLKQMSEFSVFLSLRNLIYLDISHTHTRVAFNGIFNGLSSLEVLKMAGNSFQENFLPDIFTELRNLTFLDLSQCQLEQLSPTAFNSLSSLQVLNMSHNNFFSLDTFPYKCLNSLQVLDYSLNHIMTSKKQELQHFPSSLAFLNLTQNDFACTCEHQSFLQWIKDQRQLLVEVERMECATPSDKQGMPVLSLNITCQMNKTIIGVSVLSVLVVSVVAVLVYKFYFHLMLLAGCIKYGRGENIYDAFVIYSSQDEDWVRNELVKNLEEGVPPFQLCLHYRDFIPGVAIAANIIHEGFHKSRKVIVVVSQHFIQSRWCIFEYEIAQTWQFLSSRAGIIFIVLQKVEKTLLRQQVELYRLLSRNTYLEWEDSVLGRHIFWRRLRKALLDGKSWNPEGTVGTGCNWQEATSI
T2 sequence (Q9Y6Y9 17-160 limits assumed): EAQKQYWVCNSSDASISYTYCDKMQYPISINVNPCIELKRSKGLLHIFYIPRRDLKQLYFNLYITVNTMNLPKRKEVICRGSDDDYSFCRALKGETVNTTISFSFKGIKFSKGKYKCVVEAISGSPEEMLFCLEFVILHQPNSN
T1 sequence (O60603 21-784): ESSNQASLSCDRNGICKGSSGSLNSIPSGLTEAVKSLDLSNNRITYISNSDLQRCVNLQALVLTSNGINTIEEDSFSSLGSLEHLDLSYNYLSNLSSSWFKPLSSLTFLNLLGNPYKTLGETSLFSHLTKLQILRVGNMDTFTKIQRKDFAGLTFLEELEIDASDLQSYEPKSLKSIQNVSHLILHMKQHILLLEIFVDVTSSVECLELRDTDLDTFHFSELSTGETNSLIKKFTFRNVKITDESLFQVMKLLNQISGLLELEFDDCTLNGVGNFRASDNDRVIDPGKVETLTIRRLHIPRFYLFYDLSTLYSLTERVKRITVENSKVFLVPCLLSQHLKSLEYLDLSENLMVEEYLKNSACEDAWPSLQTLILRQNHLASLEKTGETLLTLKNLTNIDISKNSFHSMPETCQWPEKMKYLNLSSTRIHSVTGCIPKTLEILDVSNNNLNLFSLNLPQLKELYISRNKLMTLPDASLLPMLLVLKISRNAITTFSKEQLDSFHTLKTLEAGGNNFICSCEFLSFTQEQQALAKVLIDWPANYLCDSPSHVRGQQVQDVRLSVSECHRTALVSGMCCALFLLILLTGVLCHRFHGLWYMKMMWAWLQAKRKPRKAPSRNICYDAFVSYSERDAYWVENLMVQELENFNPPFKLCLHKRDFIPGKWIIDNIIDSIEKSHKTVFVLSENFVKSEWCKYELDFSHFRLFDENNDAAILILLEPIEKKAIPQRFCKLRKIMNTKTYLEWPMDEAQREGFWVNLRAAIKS

Compound: CCCCCCCCCCCCCC(=O)OC(CCCCCCCCCCC)CC(=O)O[C@H]1[C@H](OP(=O)(O)O)[C@@H](CO)OC(O)[C@@H]1NC(=O)CC(O)CCCCCCCCCCC (some centres unmarked) [GLA60]
stimulation of TLR4-dependent production of cytokines TNF-α and IL-6 (TLR4): active

activation of TLR2 (SEAP) (human TLR2): strong activation of TLR2
Compound: PAM2CSK4

Compound: CCCCCCCCCCC[C@@H](O)CC(=O)N[C@H]1[C@@H](OP(=O)(O)O)O[C@H](CO)[C@@H](OC(=O)C[C@H](O)CCCCCCCCCCC)[C@@H]1OC(=O)C[C@H](O)CCCCCCCCCCC [SDZ MRL 953]
stimulation of release of inflammatory cytokines [1]: potent activity | granulocyte counts and serum cytokine levels [2]: increases granulocyte counts and serum levels of G-CSF and interleukin-6 (IL-6), but not of pro-inflammatory cytokines TNF-α, IL-1b, and IL-8 | safety and tolerability in humans [2]: safe and of excellent tolerability | effect on curative effects of antibiotics (Escherichia coli): dramatically increased the curative effects of antibiotics administered

Compound: CCCCCCCCCCCC(=O)NC1C(OC(=O)CCCCCCCCCCC)OC(CO)C(OP(=O)([O-])[O-])C1OC(=O)CCCCCCCCCCC.[Na+].[Na+] (centres unmarked) [FP20]
toxicity (MTT viability) (RAW-Blue; 50 μM): increase in the toxicity | cell viability at the highest concentration tested (THP-1-X-Blue cells): decrease in cell viability | toxicity (MTT viability) (THP-1-X-Blue cells): non-toxic | lowest concentration tested at which the compounds are active (NF-kB [3]): 0.1 µM | concentration from which the compounds activate significantly (NF-kB [4]): 10 µM | activation of TLR2 (SEAP) (human TLR2): did not produce any activation

Compound: CCCCCCCCCCCCCC(=O)NC1C(OC(=O)CCCCCCCCCCCCC)OC(CO)C(OP(=O)([O-])[O-])C1OC(=O)CCCCCCCCCCCCC.[Na+].[Na+] (centres unmarked) [FP23]
toxicity (MTT viability) (RAW-Blue; 25 μM): show toxicity | toxicity (MTT viability) (RAW-Blue; 50 μM): increase in the toxicity | cell viability at the highest concentration tested (THP-1-X-Blue cells): decrease in cell viability | toxicity (MTT viability) (THP-1-X-Blue cells): non-toxic | lowest concentration tested at which the compounds are active (NF-kB [3]): 0.1 µM | activation of TLR2 (SEAP) (human TLR2): did not produce any activation

Compound: CCCCCCCCCCCCCC(=O)NC1C(OC(=O)CCCCCCCCCCCCC)[C@H](OC(=O)CCCCCCCCCCCCC)C(CO)O[C@H]1OP(=O)(O)O (some centres unmarked) [FP11]
adverse effect on mice (local response at injection site, weight, alertness) [5]: no obvious adverse effect | inhibition of LPS-induced SEAP production (TLR4 antagonistic activity) (human TLR4 [6]): did not inhibit LPS-induced SEAP production | anti-OVA total IgG after prime immunization compared to MPLA-OVA immunized animals [7]: significantly lower levels | anti-OVA total IgG after prime immunization compared to OVA-immunized control [7]: marginally higher levels | activity on HEK-Blue Null cells (HEK-Blue Null cells): lack of activity

Compound: CCCCCCCCCC(=O)NC1C(OC(=O)CCCCCCCCC)OC(CO)C(OP(=O)([O-])[O-])C1OC(=O)CCCCCCCCC.[Na+].[Na+] (centres unmarked) [FP22]
toxicity (MTT viability) (RAW-Blue; 50 μM): increase in the toxicity | toxicity (MTT viability) (THP-1-X-Blue cells): non-toxic

activation of TLR4 (SEAP release, NF-kB and AP-1) (human TLR4 [8]): inactive
Compound: CCCCCCCCCCCCCC(=O)NC1[C@H](OP(=O)(O)O)OC(COP(=O)(O)O)[C@@H](OC(=O)CCCCCCCCCCCCC)[C@@H]1OC(=O)CCCCCCCCCCCCC (some centres unmarked) [FP111]
inhibition of LPS-induced SEAP production (TLR4 antagonistic activity) (human TLR4 [6]): did not inhibit LPS-induced SEAP production | TLR4 agonist activity (human TLR4 [9]): completely inactive

Compound: CCCCCCCCCCCC(=O)NC1C(OC(=O)CCCCCCCCC)OC(CO)C(OP(=O)([O-])[O-])C1OC(=O)CCCCCCCCC.[Na+].[Na+] (centres unmarked) [FP24]
toxicity (MTT viability) (RAW-Blue; 50 μM): increase in the toxicity | toxicity (MTT viability) (THP-1-X-Blue cells): non-toxic | lowest concentration tested at which the compounds are active (NF-kB [3]): 0.1 µM | concentration from which the compounds activate significantly (NF-kB [4]): 10 µM | activation of TLR2 (SEAP) (human TLR2): did not produce any activation

Compound: CCCCCCCCCCCC(=O)NC1C(OP(=O)(O)O)OC(CO)C(OC(=O)CCCCCCCCCCC)C1OC(=O)CCCCCCCCCCC (centres unmarked) [FP112]
toxicity in vitro [10]: low toxicity | pro-inflammatory activity ([10]; 10 μM): good pro-inflammatory activy | adverse effect on mice (local response at injection site, weight, alertness) [5]: no collateral damage; also recorded: no obvious adverse effect | release of proinflammatory cytokines [11]: able to stimulate the release of numerous proinflammatory cytokines | inhibition of LPS-induced SEAP production (TLR4 antagonistic activity) (human TLR4 [6]): did not inhibit LPS-induced SEAP production | anti-OVA total IgG after prime immunization compared to MPLA-OVA immunized animals [7]: significantly lower levels | anti-OVA total IgG after prime immunization compared to OVA-immunized control [7]: marginally higher levels | ova-specific IgG levels after boost immunization ([7]; boost on day 22, examined 14 days later): higher than those in the FP11-immunized group | effectiveness/potency as vaccine adjuvant in vivo ([7]; compared to FP11 and MPLA): comparable to that of MPLA; also recorded: more effective adjuvant in vivo than FP11 and has a potency comparable or even greater than MPLA | pro-inflammatory activity ([12]; 10 μM): good pro-inflammatory activity | toxicity in vitro [12]: low toxicity | activity on HEK-Blue Null cells (HEK-Blue Null cells): lack of activity

Compound: CCCCCCCCCCCCCC(=O)OC1OC(CO)C(OP(=O)([O-])[O-])C(OC(=O)CCCCCCCCCCCCC)C1NC(=O)CCCCCCCCCCC.[Na+].[Na+] (centres unmarked) [FP21]
toxicity (MTT viability) (RAW-Blue; 50 μM): increase in the toxicity | toxicity (MTT viability) (THP-1-X-Blue cells): non-toxic | lowest concentration tested at which the compounds are active (NF-kB [3]): 0.1 µM | concentration from which the compounds activate significantly (NF-kB [4]): 10 µM | activation of TLR2 (SEAP) (human TLR2): did not produce any activation
